pIC50: −log10 of the molar value.
Legend:
AmpC = target: T1, AmpC (Pseudomonas aeruginosa, UniProt P24735); assay: biochemical
T1 construct: AmpC, TEM-1, KPC-2 or OXA-2 domain excluding signal peptide was amplified with PCR; made in house; host or cells: Escherichia coli BL21 (DE3), pET-28b(+)

TEM-1 = target: T2, TEM-1 (Escherichia coli, UniProt P62593); assay: β-Lactamase inhibitory activity (nitrocefin hydrolysis), TEM-1; assay type: biochemical; details: TEM-1 0.1 nM, 100 μM nitrocefin, pre-incubation 30° C. 10 minutes
T2 construct: AmpC, TEM-1, KPC-2 or OXA-2 domain excluding signal peptide was amplified with PCR; made in house; host or cells: Escherichia coli BL21 (DE3), pET-28b(+)
T2 sequence (P62593 24-286 limits assumed): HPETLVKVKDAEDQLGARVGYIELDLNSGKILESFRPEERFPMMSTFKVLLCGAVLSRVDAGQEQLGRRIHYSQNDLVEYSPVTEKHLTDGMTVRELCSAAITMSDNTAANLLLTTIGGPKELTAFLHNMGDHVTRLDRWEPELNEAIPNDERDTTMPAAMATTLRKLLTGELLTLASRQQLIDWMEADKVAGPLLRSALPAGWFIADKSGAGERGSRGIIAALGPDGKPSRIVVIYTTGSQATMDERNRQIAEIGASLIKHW
Protocol: Using Pseudomonas aeruginosa ATCCBAA-47 genome, plasmid pBR322, Klebsiella pneumoniae ATCCBAA-1705, and P. aeruginosa MSC17696 as a template, each DNA for encoding β-lactamase, AmpC, TEM-1, KPC-2 or OXA-2 domain excluding signal peptide was amplified with PCR. Each of the PCR product was incorporated into pET-28b(+)vector (Merck), introduced into Escherichia coli BL21 (DE3) (Merck), and, under induction of 1 mM isopropyl-β-D-(−)-thiogalactopyranoside (Nacalai Tesque), cultured overnight at 20° C. to express AmpC, TEM-1, KPC-2, and OXA-2. After the bacterial cell was collected, AmpC was purified from the cell extract obtained by ultrasonic treatment, using CM Sepharose Fast Flow (GE Healthcare) and HiTrap Heparin HP (GE Healthcare) at 4° C. TEM-1 was purified with HiTrap SPHP (GE Healthcare), HiTrap Q (GE Healthcare) and Mono Q (GE Healthcare), and KPC-2 was purified with HiTrap SPHP. OXA-2 was purified with HiTrap SPHP and HiTrap Heparin HP.
For the measurement of β-lactamase inhibitory activity, 100 μM (final concentration) nitrocefin (Oxoid) was used as a substrate, and 2.5% DMSO, 10 μg/mL bovine serum derived albumin (Sigma-Aldrich) and 50 mM phosphate buffer at pH 7.0 were used as a reaction solution. […] Nitrocefin was added to each well to be mixed therein, followed by incubation at 30° C. for 20 minutes, and Multiscan Ascent (Thermo Fisher Scientific) was used to measure 492 nm wavelength, thereby measuring nitrocefin hydrolytic activity of β-Lactamase, to determine enzyme inhibitory activity. […] As the inhibitory activity strength, less than 0.1 μM, less than 1 μM, less than 3 μM, less than 10 μM, and 10 μM or more were shown with A, B, C, D, and E respectively.

OXA-2 = target: T3, OXA-2 (Escherichia coli, UniProt P0A1V9); assay: biochemical; design: species or system P. aeruginosa; details: OXA-2 2 nM, 100 μM nitrocefin, pre-incubation 30° C. 10 minutes; read-out: β-Lactamase inhibitory activity OXA-2 (IC50)
T3 construct: AmpC, TEM-1, KPC-2 or OXA-2 domain excluding signal peptide was amplified with PCR; made in house; host or cells: Escherichia coli BL21 (DE3), pET-28b(+)
T3 sequence (P0A1V9 22-275): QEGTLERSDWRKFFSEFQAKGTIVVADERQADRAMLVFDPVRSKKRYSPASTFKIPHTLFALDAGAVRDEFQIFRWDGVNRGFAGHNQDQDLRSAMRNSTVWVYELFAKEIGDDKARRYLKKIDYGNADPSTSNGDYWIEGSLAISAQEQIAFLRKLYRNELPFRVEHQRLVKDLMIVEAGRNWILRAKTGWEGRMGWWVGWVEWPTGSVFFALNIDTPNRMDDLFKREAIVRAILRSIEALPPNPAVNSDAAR

KPC-2 = target: T4, KPC-2 (Klebsiella pneumoniae, UniProt Q9F663); assay: β-Lactamase inhibitory activity (nitrocefin hydrolysis), KPC-2; assay type: biochemical; details: KPC-2 0.5 nM, 100 μM nitrocefin, pre-incubation 30° C. 10 minutes
T4 construct: AmpC, TEM-1, KPC-2 or OXA-2 domain excluding signal peptide was amplified with PCR; made in house; host or cells: Escherichia coli BL21 (DE3), pET-28b(+)
T4 sequence (Q9F663 25-293, looked up): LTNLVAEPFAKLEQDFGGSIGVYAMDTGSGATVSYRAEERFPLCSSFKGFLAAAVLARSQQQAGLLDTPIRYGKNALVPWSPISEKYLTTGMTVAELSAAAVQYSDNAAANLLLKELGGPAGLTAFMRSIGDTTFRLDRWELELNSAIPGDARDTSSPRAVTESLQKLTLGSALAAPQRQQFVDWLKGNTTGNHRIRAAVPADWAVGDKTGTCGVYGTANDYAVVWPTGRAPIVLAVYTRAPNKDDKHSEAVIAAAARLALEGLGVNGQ

T1 sequence (P24735 27-397): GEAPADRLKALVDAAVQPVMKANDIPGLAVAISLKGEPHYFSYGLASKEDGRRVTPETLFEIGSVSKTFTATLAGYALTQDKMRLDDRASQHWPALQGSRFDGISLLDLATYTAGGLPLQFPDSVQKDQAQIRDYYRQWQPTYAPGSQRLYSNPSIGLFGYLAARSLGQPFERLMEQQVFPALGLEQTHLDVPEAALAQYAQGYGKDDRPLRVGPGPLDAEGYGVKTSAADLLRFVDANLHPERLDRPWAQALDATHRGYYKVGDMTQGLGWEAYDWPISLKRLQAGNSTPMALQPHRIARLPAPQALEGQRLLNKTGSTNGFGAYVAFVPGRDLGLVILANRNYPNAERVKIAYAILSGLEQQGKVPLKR

**Q.** What does the source list for Nc1ccc(C(=O)NNC(=O)[C@@H]2CC[C@@H]3CN2C(=O)N3OS(=O)(=O)O)cc1 [Example 31, (2S,5R)—N′-(4-Aminobenzoyl)-7-oxo-6-(sulfooxy)-1,6-diazabicyclo[3.2.1]octane-2-carbohydrazide]?
**A.** pIC50 (AmpC): 6.00 to 7.00; pIC50 (TEM-1): > 7.00; pIC50 (OXA-2): 5.00 to 5.52; pIC50 (KPC-2): 6.00 to 7.00

**Q.** How did the pIC50 (AmpC) turn out when CNNC(=O)[C@@H]1CC[C@@H]2CN1C(=O)N2OS(=O)(=O)O (racemic) [Example 19, (2SR,5RS)—N′-Methyl-7-oxo-6-(sulfooxy)-1,6-diazabicyclo[3.2.1]octane-2-carbohydrazide] was run?
**A.** Its pIC50 is 6.00 to 7.00.

**Q.** What about the pIC50 (TEM-1) of the same molecule?
**A.** The pIC50 was greater than 7.00.

**Q.** And the pIC50 (KPC-2)?
**A.** Its pIC50 is 6.00 to 7.00.

**Q.** With O=C(NOCCN1CCNCC1)[C@@H]1CC[C@@H]2CN1C(=O)N2OS(=O)(=O)O [Example 73, (2S,5R)-7-Oxo-N-[2-(piperazin-1-yl)ethoxy]-6-(sulfooxy)-1,6-diazabicyclo[3.2.1]octane-2-carboxamide] as the molecule, how does the pIC50 (AmpC) read?
**A.** Its pIC50 is greater than 7.00.

**Q.** What about the pIC50 (TEM-1) of the same molecule?
**A.** Its pIC50 is greater than 7.00.

**Q.** What about the pIC50 (KPC-2) of the same molecule?
**A.** The pIC50 was 6.00 to 7.00.

**Q.** With O=C(NNC(=O)[C@@H]1CC[C@@H]2CN1C(=O)N2OS(=O)(=O)O)c1ccccc1 (racemic) [Example 30, Sodium (2SR,5RS)—N′-benzoyl-7-oxo-6-(sulfooxy)-1,6-diazabicyclo[3.2.1]octane-2-carbohydrazide] as the molecule, how does the pIC50 (AmpC) read?
**A.** The pIC50 was 6.00 to 7.00.

**Q.** And the pIC50 (TEM-1)?
**A.** Its pIC50 is greater than 7.00.

**Q.** And the pIC50 (KPC-2)?
**A.** Its pIC50 is 6.00 to 7.00.

**Q.** O=C(NOCCn1ccnc1)[C@@H]1CC[C@@H]2CN1C(=O)N2OS(=O)(=O)O [Example 86, Sodium (2S,5R)—N-[2-(1H-Imidazol-1-yl)ethoxy]-7-oxo-6-(sulfooxy)-1,6-diazabicyclo[3.2.1]octane-2-carboxamide] was tested. Which pIC50 (AmpC) did it give?
**A.** Its pIC50 is greater than 7.00.

**Q.** And the pIC50 (TEM-1)?
**A.** The pIC50 was greater than 7.00.

**Q.** And the pIC50 (KPC-2)?
**A.** Its pIC50 is 6.00 to 7.00.

**Q.** C[C@]1(Cn2ccnn2)[C@H](C(=O)O)N2C(=O)C[C@H]2S1(=O)=O [TAZ, tazobactam, reference compound] was tested. Which pIC50 (OXA-2) did it give?
**A.** The pIC50 was greater than 7.00.

**Q.** What about the pIC50 (KPC-2) of the same molecule?
**A.** Its pIC50 is 6.00 to 7.00.

**Q.** With O=C(NC1CCNCC1)[C@@H]1CC[C@@H]2CN1C(=O)N2OS(=O)(=O)O [MK-7655, reference compound] as the molecule, how does the pIC50 (OXA-2) read?
**A.** Its pIC50 is 6.00 to 7.00.

**Q.** With NC(=O)[C@@H]1CC[C@@H]2CN1C(=O)N2OS(=O)(=O)O [NXL104, reference compound] as the molecule, how does the pIC50 (OXA-2) read?
**A.** Its pIC50 is 6.00 to 7.00.

**Q.** With CC(C)(C)C(=O)NNC(=O)[C@@H]1CC[C@@H]2CN1C(=O)N2OS(=O)(=O)O [Example 24, Sodium (2S,5R)—N′-(2,2-dimethylpropanoyl)-7-oxo-6-(sulfooxy)-1,6-diazabicyclo[3.2.1]octane-2-carbohydrazide] as the molecule, how does the pIC50 (AmpC) read?
**A.** Its pIC50 is 6.00 to 7.00.

**Q.** What about the pIC50 (TEM-1) of the same molecule?
**A.** Its pIC50 is 6.00 to 7.00.

**Q.** What about the pIC50 (KPC-2) of the same molecule?
**A.** Its pIC50 is 6.00 to 7.00.

**Q.** With CC(C)(C)OC(=O)NNC(=O)[C@@H]1CC[C@@H]2CN1C(=O)N2OS(=O)(=O)O (racemic) [Example 53, Sodium tert-butyl 2-{[(2SR,5RS)-7-oxo-6-(sulfooxy)-1,6-diazabicyclo[3.2.1]oct-2-yl]carbonyl}hydrazinecarboxylate] as the molecule, how does the pIC50 (AmpC) read?
**A.** Its pIC50 is 6.00 to 7.00.

**Q.** What about the pIC50 (TEM-1) of the same molecule?
**A.** The pIC50 was greater than 7.00.

**Q.** And the pIC50 (KPC-2)?
**A.** The pIC50 was 6.00 to 7.00.

**Q.** How did the pIC50 (AmpC) turn out when CCONC(=O)[C@@H]1CC[C@@H]2CN1C(=O)N2OS(=O)(=O)O (racemic) [Example 57, Sodium (2SR,5RS)—N-ethoxy-7-oxo-6-(sulfooxy)-1,6-diazabicyclo[3.2.1]octane-2-carboxamide] was run?
**A.** The pIC50 was 6.00 to 7.00.

**Q.** What about the pIC50 (TEM-1) of the same molecule?
**A.** The pIC50 was greater than 7.00.

**Q.** What about the pIC50 (KPC-2) of the same molecule?
**A.** The pIC50 was 5.52 to 6.00.

**Q.** How did the pIC50 (AmpC) turn out when NCC(=O)NNC(=O)[C@@H]1CC[C@@H]2CN1C(=O)N2OS(=O)(=O)O (racemic) [Example 26, (2SR,5RS)—N′-(Aminoacetyl)-7-oxo-6-(sulfooxy)-1,6-diazabicyclo[3.2.1]octane-2-carbohydrazide] was run?
**A.** Its pIC50 is 5.52 to 6.00.

**Q.** And the pIC50 (TEM-1)?
**A.** The pIC50 was 6.00 to 7.00.

**Q.** And the pIC50 (KPC-2)?
**A.** The pIC50 was 5.52 to 6.00.

**Q.** How did the pIC50 (AmpC) turn out when O=C([C@@H]1CC[C@@H]2CN1C(=O)N2OS(=O)(=O)O)N1CCCCO1 [Example 71, Sodium (2S,5R)-2-(1,2-oxazinan-2-ylcarbonyl)-6-(sulfooxy)-1,6-diazabicyclo[3.2.1]octane-7-one] was run?
**A.** The pIC50 was 6.00 to 7.00.

**Q.** What about the pIC50 (TEM-1) of the same molecule?
**A.** The pIC50 was greater than 7.00.

**Q.** What about the pIC50 (KPC-2) of the same molecule?
**A.** Its pIC50 is 6.00 to 7.00.

From US10556905B2, “Processes for preparing a diazabicyclooctane compound” (priority 2012, dated 2020)
